Substitutions are numbered along the chain they refer to.
What was measured:
Assay in all cases: Two-electrode voltage clamp, ACh-dependent (m2R-dependent) K+ current activation
Assay type in all cases: cell-based
Kir3.2 M313S = biological target: T1, Kir3.2 M313S (Mus musculus, UniProt P48542, I313S); details: Kir3.2 M313S with porcine m2R in Xenopus oocytes; −120 mV; Hill equation fit
T1 sequence (P48542 19-425 I313S): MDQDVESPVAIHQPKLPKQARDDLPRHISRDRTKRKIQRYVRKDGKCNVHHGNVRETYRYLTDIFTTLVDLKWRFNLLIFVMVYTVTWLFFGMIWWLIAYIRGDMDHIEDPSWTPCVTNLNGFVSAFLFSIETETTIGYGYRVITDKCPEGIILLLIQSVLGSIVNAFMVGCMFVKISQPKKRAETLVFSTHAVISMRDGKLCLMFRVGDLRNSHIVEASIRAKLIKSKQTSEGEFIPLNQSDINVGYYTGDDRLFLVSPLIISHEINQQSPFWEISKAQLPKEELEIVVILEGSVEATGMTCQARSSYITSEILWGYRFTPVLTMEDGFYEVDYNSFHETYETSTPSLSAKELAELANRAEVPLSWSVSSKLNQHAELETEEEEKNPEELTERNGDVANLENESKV
T1 sequence (P06199 1-466 partner): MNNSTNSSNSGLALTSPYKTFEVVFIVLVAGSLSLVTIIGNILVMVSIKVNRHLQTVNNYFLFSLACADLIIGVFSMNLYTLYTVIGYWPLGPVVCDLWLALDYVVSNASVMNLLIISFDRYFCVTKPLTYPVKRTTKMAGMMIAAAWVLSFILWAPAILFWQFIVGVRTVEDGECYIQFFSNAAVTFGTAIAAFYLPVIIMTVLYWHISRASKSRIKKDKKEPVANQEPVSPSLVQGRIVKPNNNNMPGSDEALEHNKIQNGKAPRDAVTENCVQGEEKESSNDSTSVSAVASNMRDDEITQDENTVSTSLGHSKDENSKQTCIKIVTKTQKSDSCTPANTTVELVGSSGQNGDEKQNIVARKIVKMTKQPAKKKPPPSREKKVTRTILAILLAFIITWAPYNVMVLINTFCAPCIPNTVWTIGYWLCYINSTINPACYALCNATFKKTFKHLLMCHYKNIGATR
Description: (§1) The mouse Kir3.2d isoform was subjected to functional analyses. The amino acid numbers correspond to the longest mouse Kir3.2 isoform. Point mutations were introduced using the QuikChange site-directed mutagenesis kit (Stratagene, La Jolla, CA), and the presence of the mutations was confirmed by direct DNA sequencing. The care of Xenopus laevis was in accordance with the guideline of the Institute of Experimental Animal Sciences, Osaka University. The protocol was approved by the Animal Experiment Committee of Osaka University. The frogs were deeply anesthetized by immersing in 0.2% tricaine methanesulfonate for 20 min at 18°C. A portion of an ovary lobe was surgically removed and incubated with collagenase to remove follicular cells. The oocytes were injected with the cRNAs of Kir3.2 and porcine m2-muscarinic receptor (m2R), and maintained in modified Barth’s solution at 18°C with daily solution changes. Electrophysiological studies were undertaken 48–72 h later at room temperature (20–25°C). Two-electrode voltage-clamp recordings from oocytes were performed using a GeneClamp 500B amplifier (Axon Instruments, Sunnyvale, CA). […] The bath solution contained 40 mM KCl, 50 mM NaCl, 3 mM MgCl2, 0.15 mM niflumic acid, and 5 mM HEPES-KOH (pH 7.4). The currents were recorded in the absence or presence of various concentrations of acetylcholine (ACh). Ba^2+ (3 mM) was added at the end of the recording to estimate the endogenous leak current. The data are expressed as mean values ± standard error of the mean. For the quantitative estimation of ACh-dependent current responses of the wild-type (WT) and mutant channels, the current amplitudes at the end of test pulses at each ACh concentration ([ACh]) were fitted using the following equation:
(§2) I=min+[(max−min)/(1+(EC50/[ACh])^nH)]
(§3) where I is the current amplitude measured at the [ACh], n H is the Hill coefficient, and EC50 is the concentration that induces 50% of the maximal response. […] The values of n H and EC50 were calculated using a non-linear least-squares best fit (SigmaPlot 9; Systat Software). Statistical analyses were performed by one-way ANOVA with post-hoc tests.

Kir3.2 M313R = biological target: T2, Kir3.2 M313R (Mus musculus, UniProt P48542, I313R); details: Kir3.2 M313R with porcine m2R in Xenopus oocytes; −120 mV; Hill equation fit, min not zero
T2 sequence (P48542 19-425 I313R): T1 sequence (P48542 19-425 I313S) with S295R
T2 sequence (P06199 1-466 partner): T1 sequence (P06199 1-466 partner)
Description: as §1, §2, §3

Kir3.2 E236N = biological target: T3, Kir3.2 E236N (Mus musculus, UniProt P48542, E236N); details: Kir3.2 E236N with porcine m2R in Xenopus oocytes; −120 mV; Hill equation fit
T3 sequence (P48542 19-425 E236N): T1 sequence (P48542 19-425 I313S) with E218N, S295I
T3 sequence (P06199 1-466 partner): T1 sequence (P06199 1-466 partner)
Description: as §1, §2, §3

Q: With `CC(=O)OCC[N+](C)(C)C` [ACh, acetylcholine] as the molecule, how does the Hill coefficient (Kir3.2 M313S) read?
A: 1.04 ± 0.05

Q: And the Hill coefficient (Kir3.2 M313R)?
A: 0.52 ± 0.08

Q: And the Hill coefficient (Kir3.2 E236N)?
A: 0.82 ± 0.08
